Key:
[1] = test system: Phytophthora cinnamomi; experiment: Protection of lupin seedlings from infection by P. cinnamomi; format: in vivo; conditions: Table 7
Excerpt: Protection of lupin seedlings from infection by […]

[2] = test system: Fusarium oxysporum; experiment: Infection of tomato seedlings by F. oxysporum (soil application); format: in vivo; conditions: read-out: Protection of tomato seedlings from infection by F. oxysporum
Excerpt: Infection of tomato seedlings by F. oxysporum
100% protection 8 kg/ha (soil application) ++
50% protection at 8 kg/ha (soil application) +

[3] = test system: Monolinia fructicola; experiment: Inhibition of spore germination of M. fructicola; format: cell-based; conditions: Monilinia fructicola; Table 7; read-out: 50% inhibition of spore germination (Monolinia fructicola spore germination)
Excerpt: 50% inhibition of spore germination of M. fructicola

[4] = test system: Rhizoctonia solani; experiment: Infection of cotton seedlings by Rh. solani (soil application); format: in vivo; conditions: Table 7, 16 kg/ha, read-out: Protection of cotton seedlings from infection by Rh. solani
Excerpt: Infection of cotton seedlings by Rh. solani
100% protection at 16 kg/ha (soil application) ++
50% protection at 16 kg/ha (soil application) +

SMILES | minimal effective concentration [1] [µg/mL] | pest or weed control at 8000 g/ha [2] [%] | IC50 [3] [mg/L] | pest or weed control at 16000 g/ha [4] [%]
CCCCCCCNc1cc(N)[n+](CCCCCCC)c(Cl)c1C#N [Compound 13] | ≤ 2 | 50 | ≤ 5 | 
CCCCCCCCNc1cc(N)[n+](CCCCCCCC)c(Cl)c1C#N.[Cl-] [Compound 14, 2-amino-6-chloro-5-cyano-1-n-octyl-4-n-octylamino pyridinium chloride] | ≤ 2 | 50 | ≤ 5 | 100
N#Cc1c(NCc2ccccc2)cc(N)[n+](Cc2ccccc2)c1Cl [Compound 17] | 2 to 8 | 50 | 5 to 50 | 
CNc1cc(N)[n+](C)c(NCc2ccco2)c1C#N [Compound 23] | > 8 | 100 |  | 
CCCCCCCCCCCCNc1c(C#N)c(NC)cc(N)[n+]1C [Compound 27] | 30 |  |  | 100
CCCCNc1cc(N)[n+](CCCC)c(NCc2ccco2)c1C#N [Compound 36] | 2 to 8 |  | 5 to 50 | 50
CCCCCCNc1cc(N)[n+](CCCCCC)c(NCCCC)c1C#N.[Cl-] [Compound 42, 2-amino-6-n-butylamino-5-cyano-1-n-hexyl-4-n-hexylamino pyridinium chloride] | ≤ 2 |  | ≤ 5 | 
CCCCCCCCNc1c(C#N)c(NCCCCCC)cc(N)[n+]1CCCCCC [Compound 44] | ≤ 2 | 50 | ≤ 5 | 
CCCCCCCCNc1cc(N)[n+](CCCCCCCC)c(N)c1C#N [Compound 46] | ≤ 2 |  | ≤ 5 | 50
CC(C)Nc1cc(N)[n+](C(C)C)c(S(=O)(=O)[O-])c1C#N [Compound 59] | > 8 |  |  | 100
CCCCCCNc1c(Br)c(N)[n+](CCCCCC)c(Cl)c1C#N [Compound 67] | 2 to 8 | 50 | ≤ 5 | 
CCCCCCNc1cc(N)[n+](CCCCCC)c(Sc2ccccc2)c1C#N.[Cl-] [Compound 78, 2-amino-5-cyano-1-n-hexyl-4-n-hexylamino-6-phenylmercapto pyridinium chloride] | ≤ 2 |  | ≤ 5 | 50
